Results from ChEMBL document CHEMBL3390836, “Mannich- and LedererManasse-based analogues of the natural product S-(+)-curcuphenol as cancer proliferation and migration inhibitors” (Medchemcomm, 2012).

Experiments:
SK-MEL-28 = experiment: Cytotoxicity against human SK-MEL-28 cells assessed as cell growth at 10 uM after 48 hrs by SRB assay relative to control; type: functional; conditions: SK-MEL-28, 48 h, read-out: Activity
CCRF-CEM = experiment: Cytotoxicity against human CCRF-CEM cells assessed as cell growth at 10 uM after 48 hrs by SRB assay relative to control; type: functional; conditions: read-out: Activity
786-0 = experiment: Cytotoxicity against human 786-0 cells assessed as cell growth at 10 uM after 48 hrs by SRB assay relative to control; type: functional; conditions: 786-0, 48 h, read-out: Activity
SNB-19 = experiment: Cytotoxicity against human SNB19 cells assessed as cell growth at 10 uM after 48 hrs by SRB assay relative to control; type: functional; conditions: SNB-19, 48 h, read-out: Activity
[1] = Cytotoxicity against human UACC62 cells assessed as cell growth at 10 uM after 48 hrs by SRB assay relative to control; type: functional; conditions: UACC-62, 48 h, read-out: Activity
RXF 393 = experiment: Cytotoxicity against human RXF393 cells assessed as cell growth at 10 uM after 48 hrs by SRB assay relative to control; type: functional; conditions: RXF 393, 48 h, read-out: Activity
SW-620 = experiment: Cytotoxicity against human SW620 cells assessed as cell growth at 10 uM after 48 hrs by SRB assay relative to control; type: functional; conditions: SW-620, 48 h, read-out: Activity
NCI-H460 = experiment: Cytotoxicity against human NCI-H460 cells assessed as cell growth at 10 uM after 48 hrs by SRB assay relative to control; type: functional; conditions: NCI-H460, 48 h, read-out: Activity
KM12 = experiment: Cytotoxicity against human KM12 cells assessed as cell growth at 10 uM after 48 hrs by SRB assay relative to control; type: functional; conditions: KM12, 48 h, read-out: Activity
MDA-MB-231 [2] = experiment: Growth inhibition of human MDA-MB-231 cells after 72 hrs by MTT assay; type: functional, cell-based; conditions: MDA-MB-231, 72 h
IGROV-1 = experiment: Cytotoxicity against human IGROV1 cells assessed as cell growth at 10 uM after 48 hrs by SRB assay relative to control; type: functional; conditions: IGROV-1, 48 h, read-out: Activity
[3] = Cytotoxicity against human PC3 cells assessed as cell growth at 10 uM after 48 hrs by SRB assay relative to control; type: functional; conditions: PC-3, 48 h, read-out: Activity
NCI-H226 = experiment: Cytotoxicity against human NCI-H226 cells assessed as cell growth at 10 uM after 48 hrs by SRB assay relative to control; type: functional; conditions: NCI-H226, 48 h, read-out: Activity
MDA-MB-468 = experiment: Cytotoxicity against human MDA-MB-468 cells assessed as cell growth at 10 uM after 48 hrs by SRB assay relative to control; type: functional; conditions: MDA-MB-468, 48 h, read-out: Activity
NCI-H23 = experiment: Cytotoxicity against human NCI-H23 cells assessed as cell growth at 10 uM after 48 hrs by SRB assay relative to control; type: functional; conditions: NCI-H23, 48 h, read-out: Activity
[4] = Cytotoxicity against human Hs 578T cells assessed as cell growth at 10 uM after 48 hrs by SRB assay relative to control; type: functional; conditions: read-out: Activity
[5] = Cytotoxicity against human EKVX cells assessed as cell growth at 10 uM after 48 hrs by SRB assay relative to control; type: functional; conditions: read-out: Activity
[6] = Cytotoxicity against human OVCAR4 cells assessed as cell growth at 10 uM after 48 hrs by SRB assay relative to control; type: functional; conditions: OVCAR-4, 48 h, read-out: Activity
CAKI-1 = experiment: Cytotoxicity against human Caki1 cells assessed as cell growth at 10 uM after 48 hrs by SRB assay relative to control; type: functional; conditions: CAKI-1, 48 h, read-out: Activity
MCF7 [7] = experiment: Growth inhibition of human MCF7 cells after 72 hrs by MTT assay; type: functional, cell-based; conditions: MCF7, 72 h
HOP-62 = experiment: Cytotoxicity against human HOP62 cells assessed as cell growth at 10 uM after 48 hrs by SRB assay relative to control; type: functional; conditions: HOP-62, 48 h, read-out: Activity
[8] = Cytotoxicity against human UO31 cells assessed as cell growth at 10 uM after 48 hrs by SRB assay relative to control; type: functional; conditions: UO-31, 48 h, read-out: Activity
K562 = experiment: Cytotoxicity against human K562 cells assessed as cell growth at 10 uM after 48 hrs by SRB assay relative to control; type: functional; conditions: K562, 48 h, read-out: Activity
SN12C = experiment: Cytotoxicity against human SN12C cells assessed as cell growth at 10 uM after 48 hrs by SRB assay relative to control; type: functional; conditions: read-out: Activity
U-251 = experiment: Cytotoxicity against human U251 cells assessed as cell growth at 10 uM after 48 hrs by SRB assay relative to control; type: functional; conditions: U-251, 48 h, read-out: Activity
SF-295 = experiment: Cytotoxicity against human SF295 cells assessed as cell growth at 10 uM after 48 hrs by SRB assay relative to control; type: functional; conditions: SF-295, 48 h, read-out: Activity
MDA-MB-231 [9] = experiment: Cytotoxicity against human MDA-MB-231 cells assessed as growth inhibition after 24 hrs by MTT assay; type: cell-based; conditions: MDA-MB-231, 24 h
SK-MEL-5 = experiment: Cytotoxicity against human SK-MEL-5 cells assessed as cell growth at 10 uM after 48 hrs by SRB assay relative to control; type: functional; conditions: SK-MEL-5, 48 h, read-out: Activity
MDA-MB-435 = experiment: Cytotoxicity against human MDA-MB-435 cells assessed as cell growth at 10 uM after 48 hrs by SRB assay relative to control; type: functional; conditions: MDA-MB-435, 48 h, read-out: Activity
[10] = Cytotoxicity against human NCI-ADR-RES cells assessed as cell growth at 10 uM after 48 hrs by SRB assay relative to control; type: functional; conditions: read-out: Activity
MCF7 [11] = experiment: Cytotoxicity against human MCF7 cells assessed as cell growth at 10 uM after 48 hrs by SRB assay relative to control; type: functional; conditions: MCF7, 48 h, read-out: Activity
HCC 2998 = experiment: Cytotoxicity against human HCC2998 cells assessed as cell growth at 10 uM after 48 hrs by SRB assay relative to control; type: functional; conditions: HCC 2998, 48 h, read-out: Activity
MDA-MB-231 [12] = experiment: Antimigratory activity against human MDA-MB-231 cells after 24 hrs by wound-healing assay; type: functional, cell-based; conditions: MDA-MB-231, 24 h
SF-539 = experiment: Cytotoxicity against human SF539 cells assessed as cell growth at 10 uM after 48 hrs by SRB assay relative to control; type: functional; conditions: SF-539, 48 h, read-out: Activity
M14 = experiment: Cytotoxicity against human M14 cells assessed as cell growth at 10 uM after 48 hrs by SRB assay relative to control; type: functional; conditions: M14, 48 h, read-out: Activity
SK-MEL-2 = experiment: Cytotoxicity against human SK-MEL-2 cells assessed as cell growth at 10 uM after 48 hrs by SRB assay relative to control; type: functional; conditions: SK-MEL-2, 48 h, read-out: Activity

| Structure (SMILES) | growth at 10 µM (SK-MEL-28) | growth at 10 µM (CCRF-CEM) | growth at 10 µM (786-0) | growth at 10 µM (SNB-19) | growth at 10 µM [1] | growth at 10 µM (RXF 393) | growth at 10 µM (SW-620) | growth at 10 µM (NCI-H460) | growth at 10 µM (KM12) | IC50 (MDA-MB-231 [2]) | growth at 10 µM (IGROV-1) | growth at 10 µM [3] | growth at 10 µM (NCI-H226) | growth at 10 µM (MDA-MB-468) | growth at 10 µM (NCI-H23) | growth at 10 µM [4] | growth at 10 µM [5] | growth at 10 µM [6] | growth at 10 µM (CAKI-1) | IC50 (MCF7 [7]) | further results |
| --- | --- | --- | --- | --- | --- | --- | --- | --- | --- | --- | --- | --- | --- | --- | --- | --- | --- | --- | --- | --- | --- |
| CC(C)=CCC[C@H](C)c1ccc(C)c2c1OCN(CC1CCNCC1)C2 | 86% | 26.7% | -60.1% | 73% | 63.5% | 55.2% | 28% | 24.6% | 38.4% | 14.9 µM | 78.7% | 59.4% | 94% | 7.48% | 79% | 64.3% | 81% | 86% | 80.2% | 8.1 µM | growth at 10 µM (HOP-62): 80%; growth at 10 µM [8]: 60.5%; growth at 10 µM (K562): 0.57%; growth at 10 µM (SN12C): 47%; growth at 10 µM (U-251): -13%; growth at 10 µM (SF-295): 80%; IC50 (MDA-MB-231 [9]): > 20 µM; growth at 10 µM (SK-MEL-5): 30%; growth at 10 µM (MDA-MB-435): 14.7%; growth at 10 µM [10]: 83.5%; growth at 10 µM (MCF7 [11]): 36%; growth at 10 µM (HCC 2998): -82.1%; IC50 (MDA-MB-231 [12]): 8.1 µM; growth at 10 µM (SF-539): 73%; growth at 10 µM (M14): -95.4%; growth at 10 µM (SK-MEL-2): 95% |
| CC(C)=CCC[C@H](C)c1ccc(C)c2c1OCN(CCO)C2 | 111% | 87.5% | 61% | 57.9% | 96.1% | 52.4% | 100% | 96% | 103% | 20.3 µM | 66.7% | 76.9% | 91.2% | 82.5% | 81.7% | 75.6% | 97.2% | 79% | 91.6% | 8.4 µM | growth at 10 µM (HOP-62): 80.4%; growth at 10 µM [8]: 42.4%; growth at 10 µM (K562): 77.7%; growth at 10 µM (SN12C): 79.6%; growth at 10 µM (U-251): 85.1%; growth at 10 µM (SF-295): 98.6%; IC50 (MDA-MB-231 [9]): > 20 µM; growth at 10 µM (SK-MEL-5): 81.2%; growth at 10 µM (MDA-MB-435): 101%; growth at 10 µM [10]: 73.5%; growth at 10 µM (MCF7 [11]): 83.9%; growth at 10 µM (HCC 2998): 84.4%; IC50 (MDA-MB-231 [12]): 11.1 µM; growth at 10 µM (SF-539): 88.2%; growth at 10 µM (M14): 90.9%; growth at 10 µM (SK-MEL-2): 99.2% |
